± gives the expanded uncertainty stated by the source.
Conditions: Liquid, Vibrating tube method

CCCCCCC [heptane]
mass density [kg/m3]
Conditions	293 K	313 K	333 K	353 K	373 K	393 K	413 K	433 K	448 K	468 K
2100 kPa	687.2 ± 2	671.9 ± 2	654.8 ± 2	636.1 ± 2	616.9 ± 2	596.5 ± 2	574.1 ± 2	550.1 ± 2	531.1 ± 2	501.1 ± 2
3000 kPa	688.1 ± 2	672.9 ± 2	656 ± 2	637.6 ± 2	618.6 ± 2	598.7 ± 2	577 ± 2	553.9 ± 2	535.6 ± 2	507.8 ± 2
4000 kPa	688.9 ± 2	673.9 ± 2	657.7 ± 2	639.1 ± 2	620.3 ± 2	600.8 ± 2	579.6 ± 2	557.5 ± 2	539.8 ± 2	513.4 ± 2
5000 kPa	689.8 ± 2	674.8 ± 2	658.4 ± 2	640.4 ± 2	622 ± 2	602.8 ± 2	582.1 ± 2	560.7 ± 2	543.6 ± 2	518.6 ± 2
10000 kPa	694 ± 2	679.4 ± 2	663.9 ± 2	647.1 ± 2	629.9 ± 2	612.2 ± 2	593.6 ± 2	574.6 ± 2	560 ± 2	539.1 ± 2
20000 kPa	701.8 ± 2	688 ± 2.1	673.8 ± 2.1	658.5 ± 2.1	643.2 ± 2.1	627.8 ± 2.1	611.9 ± 2.1	595.4 ± 2.1	583 ± 2.1	566.5 ± 2.1
30000 kPa	708.7 ± 2.1	695.4 ± 2.1	682.3 ± 2.1	668 ± 2.1	654.1 ± 2.1	640.2 ± 2.1	626 ± 2.1	611.5 ± 2.1	600.3 ± 2.1	586.2 ± 2.1
40000 kPa	714.8 ± 2.1	702.2 ± 2.1	689.5 ± 2.1	676.7 ± 2.1	663.6 ± 2.1	650.8 ± 2.1	637.6 ± 2.1	624.3 ± 2.1	614.4 ± 2.2	601.3 ± 2.2
49900 kPa	720.8 ± 2.1	708.5 ± 2.1	696.5 ± 2.1	684.5 ± 2.1	672 ± 2.2	659.9 ± 2.2	647.8 ± 2.2	635.2 ± 2.2	626.2 ± 2.2	614.2 ± 2.2
59900 kPa	726.4 ± 2.2	714.3 ± 2.2	703.1 ± 2.2	691.3 ± 2.2	679.6 ± 2.2	668.3 ± 2.2	656.9 ± 2.2	644.7 ± 2.2	636.6 ± 2.2	625.3 ± 2.3
69900 kPa	731.6 ± 2.2	720 ± 2.2	708.9 ± 2.2	697.9 ± 2.2	686.7 ± 2.2	675.9 ± 2.2	664.7 ± 2.3	653.5 ± 2.3	646.2 ± 2.3	635.2 ± 2.3
79900 kPa	736.8 ± 2.2	725.2 ± 2.2	714.5 ± 2.2	703.8 ± 2.3	693.3 ± 2.3	682.9 ± 2.3	672.4 ± 2.3	661.6 ± 2.3	654.4 ± 2.3	644.1 ± 2.4
89900 kPa	741.5 ± 2.3	730.3 ± 2.3	720 ± 2.3	709.7 ± 2.3	699.4 ± 2.3	689.5 ± 2.3	679.3 ± 2.4	669 ± 2.4	661.8 ± 2.4	652.3 ± 2.4
99900 kPa	746.1 ± 2.3	735.1 ± 2.3	725.2 ± 2.3	715 ± 2.3	705.2 ± 2.4	695.7 ± 2.4	685.8 ± 2.4	676 ± 2.4	669.2 ± 2.4	659.9 ± 2.5
109900 kPa	750.6 ± 2.3	739.9 ± 2.3	729.8 ± 2.4	720.3 ± 2.4	710.7 ± 2.4	701.4 ± 2.4	692.2 ± 2.5	682.3 ± 2.5	675.8 ± 2.5	667.2 ± 2.5
119900 kPa	754.9 ± 2.4	744.3 ± 2.4	734.7 ± 2.4	725.3 ± 2.4	716 ± 2.5	706.8 ± 2.5	698 ± 2.5	688.5 ± 2.5	682.3 ± 2.5	673.9 ± 2.6
129900 kPa	759.2 ± 2.4	748.7 ± 2.4	739.3 ± 2.5	730.1 ± 2.5	720.9 ± 2.5	712.1 ± 2.5	703.6 ± 2.6	694.3 ± 2.6	688.4 ± 2.6	679.9 ± 2.6
134900 kPa	761.2 ± 2.4	751 ± 2.4	741.4 ± 2.5	732.4 ± 2.5	723.3 ± 2.5	714.7 ± 2.6	706.2 ± 2.6	697.2 ± 2.6	691.4 ± 2.6	682.8 ± 2.7
137400 kPa	762.2 ± 2.4	751.9 ± 2.5	742.6 ± 2.5	733.5 ± 2.5	724.5 ± 2.5	715.8 ± 2.6	707.4 ± 2.6	698.6 ± 2.6	692.6 ± 2.6	684.3 ± 2.7
